Where “and” joins values, the source holds several entries; their conditions need not be identical. Identical values can stand only once.
What was measured:
NET [1] = target: T1, NET (Homo sapiens, UniProt P23975); test: [3H]-NE uptake inhibition in HEK293-hNET cells; assay type: cell-based; parameters: expressed in transfected cells; host or cells: HEK293 (HEK293-hNET), stably transfected
Excerpt: (§1) The in vitro pharmacology of TD-9855 (4-[2-(2, 4, 6-trifluorophenoxymethyl)phenyl]piperidine; Figure 1) at human recombinant and rat native monoamine transporters was characterized as described previously ([Tsuruda et al., 2010]; [Shen et al., 2013]). Radioligands were sourced commercially (Perkin Elmer Life Sciences or GE Healthcare Life Sciences). Briefly, membranes prepared from HEK293 (Human Embryonic Kidney 293) cells stably-transfected with human recombinant SERT (HEK293-hSERT), NET (HEK293-hNET), or DAT ([…]) were incubated for 1hr at 22°C in the absence, or presence, of TD-9855 and [^3H]-citalopram (1.0nM) for SERT, [^3H]-nisoxetine (2.0nM) for NET, and [^3H]-WIN35428 (3.0nM) for DAT in 50mM Tris-HCl, 120mM NaCl, 5mM KCl, 0.025% BSA, 100 μM ascorbic acid, pH 7.4. Rat cortical membrane preparations were incubated with [^3H]-citalopram (2.0nM) for SERT or [^3H]-nisoxetine (4.0nM) for NET for 1hr at 22°C. […] Binding and uptake assays were terminated by rapid filtration and radioactivity, determined by liquid scintillation spectroscopy.

NET [2] = target: T1, NET; test: Human PET NET occupancy with [11C]-MRB; assay type: in vivo; parameters: from tissue; host or cells: brain of healthy male volunteers, in vivo PET
Description: This was a Phase 1, open-label, single-dose study in healthy male volunteers to evaluate NET and SERT occupancy in the human brain after oral administration of TD-9855 using PET.
The study was conducted at the Yale PET Center in accordance with the principles of the International Conference on Harmonisation’s Technical Requirements for Registration of Pharmaceuticals for Human Use Guideline for Good Clinical Practice. The protocol was approved by the Yale University Human Investigation Committee and the Yale–New Haven Hospital Radiation Safety Committee. SERT and NET occupancy were determined using the selective radiotracers [^11C]-DASB ([Meyer et al., 2004]; [Takano et al., 2006]; [Abanades et al., 2011]; [Nogami et al., 2013]) and [^11C]-MRB. Selection of the radiotracers and the dose of TD-9855 were flexible to minimize the number of PET scans.
Eligible subjects were enrolled and received either [^11C]-MRB and/or [^11C]-DASB. Each subject underwent up to 5 PET scans over a period of up to 8 days. Multiple dose levels of TD-9855 (up to 20mg) were explored. All randomized subjects received the NET tracer (single-tracer evaluation) and some subjects (n = 3) received both the NET and SERT tracers sequentially (dual-tracer evaluation) in the baseline and post-dose period. […] In the dual-tracer evaluation, subjects completed sequential [^11C]-DASB and [^11C]-MRB baseline scans with each tracer, sequential post-dose scans with each tracer at 7–10hr post-dose, and one follow-up scan with [^11C]-MRB on or between Days 3 and 7.
The injected dose of both tracers was typically 14–15 mCi, with mass doses less than 10 µg in all cases. PET images were acquired using the High Resolution Research Tomograph (HRRT; Siemens/CTI) with a reconstructed image resolution of approximately 3mm. Following a transmission scan, [^11C]-MRB or [^11C]-DASB was injected intravenously as a 1min bolus by an infusion pump. List-mode data were acquired for 120min. Head motion correction was performed using an optical tracking tool (Vicra, NDI Systems) and a rigid tool attached to a swim cap.
The occipital cortex was selected as the reference region for [^11C]-MRB due to the low density of NET measured in vitro ([Schou et al., 2005]) and the absence of specific binding in a previous study ([Hannestad et al., 2010]). The regions of interest (ROIs) selected to assess [^11C]-MRB specific binding included one cortical region and the paracentral lobule, thalamus, hypothalamus, locus ceruleus, nucleus rubra, and raphe nucleus. The thalamus and cortical ROIs were delineated using the Automated Anatomical Labeling (AAL) template ([Tzourio-Mazoyer et al., 2002]). The hypothalamus, locus ceruleus, nucleus rubra, and raphe nucleus ROIs were drawn on the template MR image, based on the AAL template ([Hannestad et al., 2010]).
For both studies, binding potentials (BP ND) were estimated using a method based on a reference region input curve. For [^11C]-MRB regional BP ND were computed using the multilinear reference tissue model 2 (MRTM2; [Ichise et al., 2003]). The suitability of MRTM2 to estimate [^11C]-MRB BP ND values was evaluated in a previous study ([Hannestad et al., 2010]), in which it was shown that MRTM2 BP ND estimates are highly correlated with BP ND estimated with arterial blood sampling and the multilinear analysis 1 (y = 0.909 x + 0.078, r^2 = 0.821, where x represents the MA1 BP ND values and y represents the MRTM2 BP ND values). BP ND values and their associated standard errors ( SEBPND ) for each ROI were then estimated by performing fits of the regional TACs. Data were fitted starting at time t* = 20min. For [^11C]-DASB, regional BP ND values were computed using simplified reference tissue model 2 (SRTM2; [Wu and Carson, 2002]). SRTM2 is similar to MRTM2, except that it uses the full data set, while MRTM2 uses the period of time t > t*. When applied to single-voxel TACs, these fits provided the BP ND images. […]

rat native NET = test: [3H]-NE uptake inhibition in rat cortical synaptosomes; assay type: biochemical; details: rat cortical synaptosomes, uptake
Excerpt: as §1

[3] = 4 mg single oral dose, individual subjects, rApp ± SE
[4] = 10 mg single oral dose, individual subject, rApp ± SE
[5] = 20 mg single oral dose, individual subject, rApp ± SE
[6] = 20 mg single oral dose, individual subjects, rApp ± SE

T1 sequence (P23975 whole entry): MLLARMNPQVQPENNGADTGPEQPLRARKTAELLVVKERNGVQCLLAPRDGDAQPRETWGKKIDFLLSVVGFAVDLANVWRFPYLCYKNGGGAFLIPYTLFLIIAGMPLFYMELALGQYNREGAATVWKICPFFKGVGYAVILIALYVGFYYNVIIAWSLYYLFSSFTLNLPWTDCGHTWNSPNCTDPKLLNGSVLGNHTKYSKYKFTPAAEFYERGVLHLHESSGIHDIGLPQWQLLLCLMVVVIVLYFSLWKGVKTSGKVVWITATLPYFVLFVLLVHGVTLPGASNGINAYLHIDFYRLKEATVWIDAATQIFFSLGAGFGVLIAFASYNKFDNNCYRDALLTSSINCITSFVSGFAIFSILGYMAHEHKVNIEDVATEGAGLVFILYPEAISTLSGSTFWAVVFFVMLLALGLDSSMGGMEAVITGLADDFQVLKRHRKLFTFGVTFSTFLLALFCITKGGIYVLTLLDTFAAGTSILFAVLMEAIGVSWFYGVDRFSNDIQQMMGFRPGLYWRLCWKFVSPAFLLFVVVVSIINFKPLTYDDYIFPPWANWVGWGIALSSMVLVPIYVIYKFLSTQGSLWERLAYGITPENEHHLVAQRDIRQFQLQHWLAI

## Fc1cc(F)c(OCc2ccccc2C2CCNCC2)c(F)c1 [TD-9855, 4-[2-(2,4,6-trifluorophenoxymethyl)phenyl]piperidine]
NET [1]; human transporters, neurotransmitter uptake
  selectivity for inhibition of NET over SERT: 4 fold
NET [1]; uptake in vitro, human and rat transporters
  inhibitory selectivity for NE: 4- to 10 fold
NET [2]; 4 mg single oral dose, individual subject, rApp ± SE
  Apparent NET Occupancy Day 7: 3.2±7.8%
NET [2]; [3]
  Apparent NET Occupancy Day 1: 57.9±4.7% and 58.7±5.5% and 42.2±6.4%
  Apparent NET Occupancy Day 3: 57.3±3.8% and 47.2±6.0% and 29.6±7.1%
NET [2]; [4]
  Apparent NET Occupancy Day 1: 110.3±7.4%
  Apparent NET Occupancy Day 3: 92.0±10.8%
NET [2]; [5]
  Apparent NET Occupancy Day 6: 62.9±5.0%
  Apparent NET Occupancy Day 7: 2.6±11.6%
NET [2]; [6]
  Apparent NET Occupancy Day 1: 120.3±6.2% and 98.4±4.7% and 119.1±8.3% and 121.2±4.5%
  Apparent NET Occupancy Day 3: 96.2±10.2% and 124.3±4.9%
NET [2]; human brain PET, single oral 4-20mg, fit ± standard error, read-out: plasma EC50 for NET occupancy (converted)
  EC50: 3.77 nM
Rat native NET
  functional selectivity for NET over SERT: 10 fold
